# According to PMC5218480 (PLoS ONE, 2017):
# System: MV-4-11 cells
# Assay: Gene expression microarray analysis (Affymetrix PrimeView) and GSEA
# Format: cell-based, human
# Parameters: RFU PODN (11730768_x_at) / Fold change /veh PODN (11730768_x_at) / RFU LINC00158 (11744669_a_at) / Fold change /veh LINC00158 (11744669_a_at) / RFU DUSP10 (11751237_a_at) / Fold change /veh DUSP10 (11751237_a_at) / RFU ID3 (11757404_x_at) / Fold change /veh ID3 (11757404_x_at) / RFU PLEKHG5 (11737974_s_at) / Fold change /veh PLEKHG5 (11737974_s_at) / RFU LRRC4B (11730491_at) / Fold change /veh LRRC4B (11730491_at) / RFU GIMAP4 (11747438_a_at) / Fold change /veh GIMAP4 (11747438_a_at) / RFU KRT8 (11758183_x_at) / Fold change /veh KRT8 (11758183_x_at) / RFU CNN1 (11734310_a_at) / Fold change /veh CNN1 (11734310_a_at) / RFU VPS37D (11726825_at) / Fold change /veh VPS37D (11726825_at) / RFU C10orf10 (11716522_x_at) / Fold change /veh C10orf10 (11716522_x_at) / RFU KIR2DL2 /// KIR2DL4 /// KIR2DL5A /// KIR2DL5B /// KIR2DS1 /// KIR2DS2 /// KIR2DS3 /// KIR2DS4 /// KIR3DL3 /// KIR3DL3 /// KIR3DS1 (11738374_at) / Fold change /veh KIR2DL2 /// KIR2DL4 /// KIR2DL5A /// KIR2DL5B /// KIR2DS1 /// KIR2DS2 /// KIR2DS3 /// KIR2DS4 /// KIR3DL3 /// KIR3DL3 /// KIR3DS1 (11738374_at) / RFU C1QL1 (11718748_at) / Fold change /veh C1QL1 (11718748_at) / RFU TMPRSS4 (11747572_a_at) / Fold change /veh TMPRSS4 (11747572_a_at) / RFU HAMP (11756126_x_at) / Fold change /veh HAMP (11756126_x_at) / RFU RNFT2 (11725882_a_at) / Fold change /veh RNFT2 (11725882_a_at) / RFU NR4A2 (11747474_a_at) / Fold change /veh NR4A2 (11747474_a_at) / RFU ABCC12 (11746883_a_at) / Fold change /veh ABCC12 (11746883_a_at) / RFU TMEM136 (11760407_x_at) / Fold change /veh TMEM136 (11760407_x_at) / RFU CLDN22 /// WWC2 (11732394_at) / Fold change /veh CLDN22 /// WWC2 (11732394_at) / RFU HLA-DPB1 (11760878_x_at) / Fold change /veh HLA-DPB1 (11760878_x_at) / RFU SPINT1 (11716480_a_at) / Fold change /veh SPINT1 (11716480_a_at) / RFU GAP43 (11754022_s_at) / Fold change /veh GAP43 (11754022_s_at) / RFU A4GNT (11735810_at) / Fold change /veh A4GNT (11735810_at) / RFU PRB3 (11715151_x_at) / Fold change /veh PRB3 (11715151_x_at) / RFU TUBB4B (11761932_at) / Fold change /veh TUBB4B (11761932_at) / RFU CAPN14 (11732068_a_at) / Fold change /veh CAPN14 (11732068_a_at) / RFU TMCC2 (11721928_a_at) / Fold change /veh TMCC2 (11721928_a_at) / RFU IRGQ (11745062_a_at) / Fold change /veh IRGQ (11745062_a_at) / RFU FAM174B (11720279_a_at) / Fold change /veh FAM174B (11720279_a_at) / RFU TMPRSS4 (11748680_a_at) / Fold change /veh TMPRSS4 (11748680_a_at) / RFU FAM212B (11763350_a_at) / Fold change /veh FAM212B (11763350_a_at) / RFU PLEKHG5 (11743358_a_at) / Fold change /veh PLEKHG5 (11743358_a_at) / RFU ZSCAN30 (11745921_a_at) / Fold change /veh ZSCAN30 (11745921_a_at) / RFU CMKLR1 (11741424_a_at) / Fold change /veh CMKLR1 (11741424_a_at) / RFU LOC101060620 /// MAPK8IP1 (11723275_at) / Fold change /veh LOC101060620 /// MAPK8IP1 (11723275_at) / RFU SPTSSB (11747773_x_at) / Fold change /veh SPTSSB (11747773_x_at) / RFU PRSS12 (11739890_at) / Fold change /veh PRSS12 (11739890_at) / RFU BIN1 (11741810_x_at) / Fold change /veh BIN1 (11741810_x_at) / RFU WNT11 (11732464_a_at) / Fold change /veh WNT11 (11732464_a_at) / RFU C10orf10 (11716521_a_at) / Fold change /veh C10orf10 (11716521_a_at) / RFU C5orf56 (11738089_at) / Fold change /veh C5orf56 (11738089_at) / RFU CYB561 (11721691_x_at) / Fold change /veh CYB561 (11721691_x_at) / RFU ANKRD19P (11752326_a_at) / Fold change /veh ANKRD19P (11752326_a_at) / RFU OR2T12 /// OR2T33 /// OR2T8 (11738714_s_at) / Fold change /veh OR2T12 /// OR2T33 /// OR2T8 (11738714_s_at) / RFU VCAN (11748164_a_at) / Fold change /veh VCAN (11748164_a_at) / RFU JSRP1 (11732532_at) / Fold change /veh JSRP1 (11732532_at) / RFU KRTAP10-11 (11738290_x_at) / Fold change /veh KRTAP10-11 (11738290_x_at) / RFU MYO3A (11730013_a_at) / Fold change /veh MYO3A (11730013_a_at) / RFU EBF3 (11725865_a_at) / Fold change /veh EBF3 (11725865_a_at) / RFU CAMK2N1 (11719241_x_at) / Fold change /veh CAMK2N1 (11719241_x_at) / RFU C5orf56 (11738088_a_at) / Fold change /veh C5orf56 (11738088_a_at) / RFU OLFML3 (11715873_a_at) / Fold change /veh OLFML3 (11715873_a_at) / RFU LOC100653217 /// NTM (11731650_a_at) / Fold change /veh LOC100653217 /// NTM (11731650_a_at) / RFU MAPK11 (11762145_a_at) / Fold change /veh MAPK11 (11762145_a_at) / RFU FIZ1 (11724087_x_at) / Fold change /veh FIZ1 (11724087_x_at) / RFU OASL (11726364_x_at) / Fold change /veh OASL (11726364_x_at) / RFU SOX15 (11748057_x_at) / Fold change /veh SOX15 (11748057_x_at) / RFU CD79A (11719716_a_at) / Fold change /veh CD79A (11719716_a_at) / RFU HIST1H1D (11736915_at) / Fold change /veh HIST1H1D (11736915_at) / RFU CASKIN2 (11723855_a_at) / Fold change /veh CASKIN2 (11723855_a_at) / RFU LOC730098 (11760151_x_at) / Fold change /veh LOC730098 (11760151_x_at) / RFU OR4N2 (11742367_at) / Fold change /veh OR4N2 (11742367_at) / RFU PRRT2 (11749266_a_at) / Fold change /veh PRRT2 (11749266_a_at) / RFU SNX32 (11753110_a_at) / Fold change /veh SNX32 (11753110_a_at) / RFU CDHR5 (11726645_a_at) / Fold change /veh CDHR5 (11726645_a_at) / RFU RCAN1 (11760418_a_at) / Fold change /veh RCAN1 (11760418_a_at) / RFU FAM167A (11723789_a_at) / Fold change /veh FAM167A (11723789_a_at) / RFU FAM26E (11764081_at) / Fold change /veh FAM26E (11764081_at) / RFU ISYNA1 (11749810_s_at) / Fold change /veh ISYNA1 (11749810_s_at) / RFU ACY1 (11761880_at) / Fold change /veh ACY1 (11761880_at) / RFU 11764098_at / Fold change /veh 11764098_at / RFU SAMD14 (11745864_x_at) / Fold change /veh SAMD14 (11745864_x_at) / RFU NPB (11741838_a_at) / Fold change /veh NPB (11741838_a_at) / RFU TMPRSS6 (11731388_a_at) / Fold change /veh TMPRSS6 (11731388_a_at) / RFU KRTAP10-2 (11738614_at) / Fold change /veh KRTAP10-2 (11738614_at) / RFU ARHGAP8 /// PRR5-ARHGAP8 (11727945_x_at) / Fold change /veh ARHGAP8 /// PRR5-ARHGAP8 (11727945_x_at) / RFU KRTAP5-7 /// NADSYN1 (11734609_at) / Fold change /veh KRTAP5-7 /// NADSYN1 (11734609_at) / RFU RASL12 (11751679_a_at) / Fold change /veh RASL12 (11751679_a_at) / RFU CDKN2B (11736163_a_at) / Fold change /veh CDKN2B (11736163_a_at) / RFU PRF1 (11729649_at) / Fold change /veh PRF1 (11729649_at) / RFU, ZNF638 /// ZNF638-IT1 / Fold change vs veh, ZNF638 /// ZNF638-IT1 / RFU, PANK3 / Fold change vs veh, PANK3 / RFU, SH3YL1 / Fold change vs veh, SH3YL1 / RFU, ZEB2 / Fold change vs veh, ZEB2 / RFU, NRIP1 / Fold change vs veh, NRIP1 / RFU, PTTG1IP / Fold change vs veh, PTTG1IP / RFU, CAPN2 / Fold change vs veh, CAPN2 / RFU, MED14 / Fold change vs veh, MED14 / RFU, SNORA58 / Fold change vs veh, SNORA58 / RFU, C1orf63 / Fold change vs veh, C1orf63 / RFU, LRRFIP1 / Fold change vs veh, LRRFIP1 / RFU, NDUFAF7 / Fold change vs veh, NDUFAF7 / RFU, SLC12A2 / Fold change vs veh, SLC12A2 / RFU, IBTK / Fold change vs veh, IBTK / RFU, ESF1 / Fold change vs veh, ESF1 / Fold change vs veh, TMEM50B / RFU, TAOK1 / Fold change vs veh, TAOK1 / RFU, ACBD3 / Fold change vs veh, ACBD3 / RFU, TMA16 / Fold change vs veh, TMA16 / RFU, RWDD3 / Fold change vs veh, RWDD3 / RFU, BCAT1 / Fold change vs veh, BCAT1 / RFU, EDEM3 / Fold change vs veh, EDEM3 / RFU, TMEM33 / Fold change vs veh, TMEM33 / RFU, WDR75 / Fold change vs veh, WDR75 / RFU, AHCTF1 / Fold change vs veh, AHCTF1 / RFU, TFRC / Fold change vs veh, TFRC / RFU, ZDHHC17 / Fold change vs veh, ZDHHC17 / RFU, NOM1 / Fold change vs veh, NOM1 / RFU, ARL8B / Fold change vs veh, ARL8B / RFU, ZBTB11 / Fold change vs veh, ZBTB11 / RFU, TAMM41 / Fold change vs veh, TAMM41 / RFU, KIAA1704 /// LOC100996395 / Fold change vs veh, KIAA1704 /// LOC100996395 / RFU, ING1 / Fold change vs veh, ING1 / RFU, TRMT61B / Fold change vs veh, TRMT61B / RFU, FUBP3 / Fold change vs veh, FUBP3 / RFU, TP53 / Fold change vs veh, TP53 / RFU, TNKS2 / Fold change vs veh, TNKS2 / RFU, ZFP14 / Fold change vs veh, ZFP14 / RFU, ACTR2 / Fold change vs veh, ACTR2 / RFU, PPP3R1 / Fold change vs veh, PPP3R1 / RFU, PIK3R1 / Fold change vs veh, PIK3R1 / RFU, HNRNPA1 / Fold change vs veh, HNRNPA1 / RFU, RNF170 / Fold change vs veh, RNF170 / RFU, ZNF28 / Fold change vs veh, ZNF28 / RFU, RNGTT / Fold change vs veh, RNGTT / RFU, OGT / Fold change vs veh, OGT / RFU, BRD1 / Fold change vs veh, BRD1 / RFU, MARS / Fold change vs veh, MARS / RFU, ZNF655 / Fold change vs veh, ZNF655 / RFU, FAHD1 / Fold change vs veh, FAHD1 / RFU, BDP1 / Fold change vs veh, BDP1 / RFU, LRRCC1 / Fold change vs veh, LRRCC1 / RFU, ARID1A / Fold change vs veh, ARID1A / RFU, ZNF146 / Fold change vs veh, ZNF146 / RFU, ZNF330 / Fold change vs veh, ZNF330 / RFU, GPN3 / Fold change vs veh, GPN3 / RFU, C9orf123 / Fold change vs veh, C9orf123 / RFU, N4BP2L2 / Fold change vs veh, N4BP2L2 / RFU, ARFIP1 / Fold change vs veh, ARFIP1 / RFU, FAM179B / Fold change vs veh, FAM179B / RFU, BCL10 / Fold change vs veh, BCL10 / RFU, UHRF1BP1L / Fold change vs veh, UHRF1BP1L / RFU, BET1 / Fold change vs veh, BET1 / RFU, CNOT2 / Fold change vs veh, CNOT2 / RFU, ZNF268 / Fold change vs veh, ZNF268 / Fold change vs veh, ZNF507 / RFU, DGCR2 / Fold change vs veh, DGCR2 / RFU, WDSUB1 / Fold change vs veh, WDSUB1 / Fold change vs veh, HSP90B1 /// MIR3652 / RFU, ADSS / Fold change vs veh, ADSS / RFU, GK / Fold change vs veh, GK / RFU, ZNF148 / Fold change vs veh, ZNF148 / RFU, TAF9 / Fold change vs veh, TAF9 / RFU, SLC1A5 / Fold change vs veh, SLC1A5 / RFU, SLMO2 / Fold change vs veh, SLMO2 / RFU, ABCC4 / Fold change vs veh, ABCC4 / RFU, LOC101060439 /// RAP1B / Fold change vs veh, LOC101060439 /// RAP1B / RFU, RFX7 / Fold change vs veh, RFX7 / RFU, GTPBP10 / Fold change vs veh, GTPBP10 / RFU, CNEP1R1 / Fold change vs veh, CNEP1R1 / RFU, BIVM-ERCC5 /// ERCC5 / Fold change vs veh, BIVM-ERCC5 /// ERCC5 / RFU, ILF3 / Fold change vs veh, ILF3 / RFU 11762660_at / Fold change /veh 11762660_at / RFU VCAN (11757783_s_at) / Fold change /veh VCAN (11757783_s_at) / RFU DDX43 (11728927_at) / Fold change /veh DDX43 (11728927_at) / RFU KRT8 (11758188_x_at) / Fold change /veh KRT8 (11758188_x_at) / RFU NKD1 (11759106_at) / Fold change /veh NKD1 (11759106_at) / RFU SRD5A1 (11742802_a_at) / Fold change /veh SRD5A1 (11742802_a_at) / RFU TPSAB1 /// TPSB2 (11721975_s_at) / Fold change /veh TPSAB1 /// TPSB2 (11721975_s_at) / RFU GSTM3 (11746129_a_at) / Fold change /veh GSTM3 (11746129_a_at) / RFU IL23R (11737362_x_at) / Fold change /veh IL23R (11737362_x_at) / RFU TMEM51 (11727254_a_at) / Fold change /veh TMEM51 (11727254_a_at) / RFU PIWIL2 (11732686_x_at) / Fold change /veh PIWIL2 (11732686_x_at) / RFU ORM1 (11744905_x_at) / Fold change /veh ORM1 (11744905_x_at) / RFU CCDC152 (11743942_at) / Fold change /veh CCDC152 (11743942_at) / RFU ECM1 (11717891_a_at) / Fold change /veh ECM1 (11717891_a_at) / RFU IL23R (11748794_a_at) / Fold change /veh IL23R (11748794_a_at) / RFU TNFAIP8L3 (11732012_x_at) / Fold change /veh TNFAIP8L3 (11732012_x_at) / RFU MBOAT4 (11741988_at) / Fold change /veh MBOAT4 (11741988_at) / RFU 11764193_at / Fold change /veh 11764193_at / RFU TMEM53 (11763286_at) / Fold change /veh TMEM53 (11763286_at) / RFU MAGEB2 (11727129_at) / Fold change /veh MAGEB2 (11727129_at) / RFU TMEM200A (11744735_a_at) / Fold change /veh TMEM200A (11744735_a_at) / RFU CCDC152 (11751479_a_at) / Fold change /veh CCDC152 (11751479_a_at) / RFU FAM211A (11726209_a_at) / Fold change /veh FAM211A (11726209_a_at) / RFU RGS16 (11746705_a_at) / Fold change /veh RGS16 (11746705_a_at) / RFU VCAN (11755009_s_at) / Fold change /veh VCAN (11755009_s_at) / RFU RHOB (11743442_s_at) / Fold change /veh RHOB (11743442_s_at) / RFU RGS16 (11720943_a_at) / Fold change /veh RGS16 (11720943_a_at) / RFU RGS16 (11720944_at) / Fold change /veh RGS16 (11720944_at) / RFU, VPS4B / Fold change vs veh, VPS4B / RFU, CREB1 / Fold change vs veh, CREB1 / RFU, DNAJC13 / Fold change vs veh, DNAJC13 / RFU, GNAQ / Fold change vs veh, GNAQ / RFU, CDK5R1 / Fold change vs veh, CDK5R1 / RFU, ZRANB3 / Fold change vs veh, ZRANB3 / RFU, CUL4A / Fold change vs veh, CUL4A / RFU, CCNY / Fold change vs veh, CCNY / RFU, UFL1 / Fold change vs veh, UFL1 / RFU, COG3 / Fold change vs veh, COG3 / RFU, DIAPH2 / Fold change vs veh, DIAPH2 / RFU, SKA2 / Fold change vs veh, SKA2 / RFU, AFF3 / Fold change vs veh, AFF3 / RFU, LMF1 / Fold change vs veh, LMF1 / RFU, IPO11 / Fold change vs veh, IPO11 / RFU, DFFB / Fold change vs veh, DFFB / RFU, FOXP1 / Fold change vs veh, FOXP1 / RFU, CARD8 / Fold change vs veh, CARD8 / RFU, STRN3 / Fold change vs veh, STRN3 / RFU, ADK / Fold change vs veh, ADK / RFU, RASSF2 / Fold change vs veh, RASSF2 / RFU, WIPF1 / Fold change vs veh, WIPF1 / RFU, LARP1B / Fold change vs veh, LARP1B / RFU, RASA1 / Fold change vs veh, RASA1 / RFU, RB1 / Fold change vs veh, RB1 / RFU, PPFIA1 / Fold change vs veh, PPFIA1 / RFU, MAT2A / Fold change vs veh, MAT2A / RFU, CCT5 / Fold change vs veh, CCT5 / RFU, WDR92 / Fold change vs veh, WDR92 / RFU, CUX1 / Fold change vs veh, CUX1 / RFU, TTC7A / Fold change vs veh, TTC7A / RFU, TMEM135 / Fold change vs veh, TMEM135 / RFU, DEPTOR / Fold change vs veh, DEPTOR / RFU, CPM / Fold change vs veh, CPM / RFU, DNAJB6 / Fold change vs veh, DNAJB6 / RFU, CACNA2D3 / Fold change vs veh, CACNA2D3 / RFU, DTX4 / Fold change vs veh, DTX4 / RFU, TFCP2 / Fold change vs veh, TFCP2 / RFU, GMCL1 /// GMCL1P1 / Fold change vs veh, GMCL1 /// GMCL1P1 / RFU, AEBP2 / Fold change vs veh, AEBP2 / RFU, SNHG1 /// SNORD22 /// SNORD25 /// SNORD26 /// SNORD27 /// SNORD28 /// SNORD29 /// SNORD31 / Fold change vs veh, SNHG1 /// SNORD22 /// SNORD25 /// SNORD26 /// SNORD27 /// SNORD28 /// SNORD29 /// SNORD31 / Fold change (Aza/veh), C12orf56 (ProbeSet 11735607_a_at) / Fold change (ACY-1035/veh), C12orf56 (ProbeSet 11735607_a_at) / Fold change (Aza/veh), FGFR1OP (ProbeSet 11751329_s_at) / Fold change (ACY-1035/veh), FGFR1OP (ProbeSet 11751329_s_at) / Fold change (Aza/veh), VPS36 (ProbeSet 11739960_a_at) / Fold change (ACY-1035/veh), VPS36 (ProbeSet 11739960_a_at) / RFU SYPL1 (11715823_x_at) / Fold change /veh SYPL1 (11715823_x_at) / RFU IGFBP7 (11715501_s_at) / Fold change /veh IGFBP7 (11715501_s_at) / RFU REEP3 (11722064_at) / Fold change /veh REEP3 (11722064_at) / RFU IGLL1 (11728026_x_at) / Fold change /veh IGLL1 (11728026_x_at): dose or concentration left out as unconfirmed
# Conditions: MV-4-11 cells, 48 hours
structure (smiles),measurement,value
Nc1ccc(-c2cccs2)cc1NC(=O)c1ccc2c(c1)cc(C1CC1)n2CCN1CCOCC1 [ACY-1035],Fold change /veh HAMP (11756126_x_at),0.97
